The values that follow come from patent publication US20250205185A1 (COSMED PHARMACEUTICAL CO., LTD., priority 2022, published 2025).

This data set can be described thus: Microscope observation of taurine crystals (Test Example 1). The class given is physicochemical. Conditions: observed with a microscope; for Maximum particle size (length) μm: length = major axis; for Maximum particle size (thickness) μm: thickness = minor axis.

`NCCS(=O)(=O)O` [Comparative Example 3, taurine, reference compound]: the Crystalline form entry was “Massive”, the “Maximum particle size (length) μm” value is 6740 μm and the “Maximum particle size (thickness) μm” value is 1680 μm.

In the case of `NCCS(=O)(=O)O` [Example 6, taurine], the Crystalline form entry is listed as “Needle-”, the “Maximum particle size (length) μm” value is given as 250 μm and the “Maximum particle size (thickness) μm” value is 25 μm.

`NCCS(=O)(=O)O` [Example 5, taurine]: the Crystalline form entry is “Needle-”, the “Maximum particle size (length) μm” value is listed as 800 μm and the “Maximum particle size (thickness) μm” value worked out at 55 μm.

For `NCCS(=O)(=O)O` [Comparative Example 2, taurine], the Crystalline form entry was “Massive”, the “Maximum particle size (length) μm” value amounted to 2000 μm and the “Maximum particle size (thickness) μm” value was found to be 300 μm.

Take `NCCS(=O)(=O)O` [Example 9, taurine]: the Crystalline form entry was “Needle-”, the “Maximum particle size (length) μm” value came out at 150 μm and the “Maximum particle size (thickness) μm” value is 40 μm.

As for `NCCS(=O)(=O)O` [Example 10, taurine], the Crystalline form entry was “Needle-”, the “Maximum particle size (length) μm” value was 720 μm and the “Maximum particle size (thickness) μm” value is listed as 25 μm.

Take `NCCS(=O)(=O)O` [Example 4, taurine]: the Crystalline form entry is “Columnar”, the “Maximum particle size (length) μm” value is recorded as 100 μm and the “Maximum particle size (thickness) μm” value amounted to 70 μm.

`NCCS(=O)(=O)O` [Example 11, taurine]: the Crystalline form result is reported as “Needle-”, the “Maximum particle size (length) μm” value was found to be 370 μm and the “Maximum particle size (thickness) μm” value is on record as 20 μm.

As for `NCCS(=O)(=O)O` [Example 8, taurine], the Crystalline form result is on record as “Needle-”, the “Maximum particle size (length) μm” value is 220 μm and the “Maximum particle size (thickness) μm” value came to 30 μm.

With `NCCS(=O)(=O)O` [Example 7, taurine], the Crystalline form entry is recorded as “Needle-”, the “Maximum particle size (length) μm” value stood at 250 μm and the “Maximum particle size (thickness) μm” value is reported as 20 μm.

With `NCCS(=O)(=O)O` [Comparative Example 1, taurine], the Crystalline form entry is “Massive”, the “Maximum particle size (length) μm” value amounted to 700 μm and the “Maximum particle size (thickness) μm” value was found to be 160 μm.

For `NCCS(=O)(=O)O` [Example 3, taurine], the Crystalline form entry is given as “Columnar”, the “Maximum particle size (length) μm” value worked out at 150 μm and the “Maximum particle size (thickness) μm” value worked out at 100 μm.

In the case of `NCCS(=O)(=O)O` [Example 1, taurine], the Crystalline form result was “Columnar”, the “Maximum particle size (length) μm” value was determined as 280 μm and the “Maximum particle size (thickness) μm” value worked out at 145 μm.

For the molecule `NCCS(=O)(=O)O` [Example 2, taurine], the Crystalline form result is given as “Columnar”, the “Maximum particle size (length) μm” value is 150 μm and the “Maximum particle size (thickness) μm” value amounted to 80 μm.
